Measured values as given in patent US6355673B1, “Substituted diaminocarboxylic acids” (Aventis Pharma Deutschland GmbH, priority 1997, dated 2002).

Columns and labels:
[1] = molecular target: T1, neutrophil collagenase (MMP-8) (Homo sapiens, UniProt P22894); assay: Enzyme inhibition of the catalytic domain of neutrophil collagenase (fluorogenic substrate); assay type: biochemical; conditions: 15 min preincubation, pH=6.5, fluorescence 328 nm (ex)/393 nm (em)
T1 construct: enzymatic activity of the catalytic domains of human stromelysin and of neutrophil collagenase; made in house
T1 sequence (P22894 100-262 limits assumed): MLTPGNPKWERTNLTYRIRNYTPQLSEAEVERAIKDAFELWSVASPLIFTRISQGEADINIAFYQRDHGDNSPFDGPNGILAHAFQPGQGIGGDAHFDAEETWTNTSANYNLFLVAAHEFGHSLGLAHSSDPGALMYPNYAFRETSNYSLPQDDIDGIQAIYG
Protocol: (§1) Preparation and determination of the enzymatic activity of the catalytic domains of human stromelysin and of neutrophil collagenase.
(§2) The enzymes stromelysin (MMP-3) and neutrophil collagenase (MMP-8) were prepared according to Ye et al. (Biochemistry; 31 (1992) pages 11231-11235). To measure the enzyme activity or the enzyme inhibitor action, 70 μl of buffer solution and 10 μl of enzyme solution are incubated for 15 min with 10 μl of a 10% strength (v/v) aqueous dimethyl sulfoxide solution, which optionally contains the enzyme inhibitor. After addition of 10 μl of a 10% strength (v/v) aqueous dimethyl sulfoxide solution which contains 1 mil/L of the substrates, the enzyme reaction is monitored by fluorescence spectroscopy (328 nm (ex)/393 nm(em)). The enzyme activity is shown as the extinction increase/min. The IC50 values listed in Table 2 are determined as those inhibitor concentrations which in each case lead to a 50% inhibition of the enzyme.
(§3) The buffer solution contains 0.05% Brij (Sigma, Deisenhofen, Germany) and also 0.1 mol/L tris/HCl, 0.1 mol/L NaCl, 0.01 mol/L CaCl2 and 0.1 mol/L piperazine-N,N′-bis(2-ethanesulfonic acid) (pH=6.5). The enzyme solution contains 5 μg/ml of one of the enzyme domains prepared according to Ye et al. The substrate solution contains 1 mil/L of the fluorogenic substrate (7-methoxycoumarin-4-yl)acetyl-Pro-Leu-Gly-Leu-3-(2′,4′-dinitrophenyl)-L-2,3-diaminopropionyl-Ala-Arg-NH2 (Bachem, Heidelberg, Germany).

stromelysin (MMP-3) = molecular target: T2, stromelysin (MMP-3) (Homo sapiens, UniProt P08254); assay: Enzyme inhibition of the catalytic domain of human stromelysin (fluorogenic substrate); assay type: biochemical; conditions: 15 min preincubation, pH=6.5, fluorescence 328 nm (ex)/393 nm (em)
T2 construct: enzymatic activity of the catalytic domains of human stromelysin and of neutrophil collagenase; made in house
T2 sequence (P08254 100-272 limits assumed): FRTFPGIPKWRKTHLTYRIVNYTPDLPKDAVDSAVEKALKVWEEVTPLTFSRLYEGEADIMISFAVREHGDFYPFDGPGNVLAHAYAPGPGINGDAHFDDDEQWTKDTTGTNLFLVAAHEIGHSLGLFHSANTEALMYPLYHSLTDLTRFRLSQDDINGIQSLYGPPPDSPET
Protocol: as §1, §2, §3

Structure (SMILES) | IC50 [1] [nM] | IC50 (stromelysin (MMP-3)) [nM]
O=C(NCCC[C@@H](NS(=O)(=O)c1ccc(-c2ccc(Cl)cc2)cc1)C(=O)O)c1ccc2c(c1)OCO2 [Example 48] | 7 | 20
CCC(=O)NCCC[C@H](NS(=O)(=O)c1ccc(-c2ccc(Cl)cc2)cc1)C(=O)O [Example 82] | 4 | 20
NC(=O)NCCCC[C@@H](NS(=O)(=O)c1ccc(-c2ccc(Cl)cc2)cc1)C(=O)O [Example 23] | 5 | 40
N/C(=N\[N+](=O)[O-])NCCC[C@H](NS(=O)(=O)c1ccc(-c2ccc(Cl)cc2)cc1)C(=O)O [Example 25] | 10 | 60
O=C(NCCC[C@@H](NS(=O)(=O)c1ccc(-c2ccc(Cl)cc2)cc1)C(=O)O)c1ccc(F)cc1 [Example 47] | 3 | 10
O=C(NCCC[C@H](NS(=O)(=O)c1ccc(-c2ccc(Cl)cc2)cc1)C(=O)O)c1ccc(F)cc1F [Example 86] | 4 | 20
NC(=O)NCCC[C@@H](NS(=O)(=O)c1ccc(-c2ccc(Cl)cc2)cc1)C(=O)O [Example 1, (R)-(4-Chlorobiphenylsulfonyl)citrulline] | 7 | 50
O=C(NCCC[C@H](NS(=O)(=O)c1ccc(-c2ccc(Cl)cc2)cc1)C(=O)O)NS(=O)(=O)c1ccccc1 [Example 5, (4-Chlorobiphenylsulfonyl)-N-delta-(phenylsulfonylamino-carbonyl)-Orn-OH] | 4 | 50
O=C(NCCC[C@H](NS(=O)(=O)c1ccc(-c2ccc(Cl)cc2)cc1)C(=O)O)c1ccc(Cl)cc1 [Example 90] | 5 | 20
COc1ccc(S(=O)(=O)NCCC[C@H](NS(=O)(=O)c2ccc(-c3ccc(Cl)cc3)cc2)C(=O)O)cc1OC [Example 60] | 10 | 10
C[C@H](NC(=O)OC(C)(C)C)C(=O)NCCC[C@H](NS(=O)(=O)c1ccc(-c2ccc(Cl)cc2)cc1)C(=O)O [Example 53] | 6 | 30
O=C(NCCC[C@H](NS(=O)(=O)c1ccc(-c2ccc(Cl)cc2)cc1)C(=O)O)c1ccccc1F [Example 88] | 3 | 10
CC(C)(C)OC(=O)NCCC[C@H](NS(=O)(=O)c1ccc(-c2ccc(Cl)cc2)cc1)C(=O)O [Example 14] | 3 | 5
O=C(CC[C@H](C(=O)O)c1ccccc1)NCCC[C@H](NS(=O)(=O)c1ccc(-c2ccc(Cl)cc2)cc1)C(=O)O [Example 79] | 2 | 5
O=C(NCCCC[C@H](NS(=O)(=O)c1ccc(-c2ccc(Cl)cc2)cc1)C(=O)O)OCc1ccccc1 [Example 16] | 10 | 20
N/C(=N\[N+](=O)[O-])NCCC[C@@H](NS(=O)(=O)c1ccc(-c2ccc(Cl)cc2)cc1)C(=O)O [Example 26] | 7 | 60
O=C(NCCC[C@H](NS(=O)(=O)c1ccc(-c2ccc(Cl)cc2)cc1)C(=O)O)NS(=O)(=O)c1ccccc1 (single isomer, unassigned) [Example 61] | 2 | 6
NC(=O)C1(C(=O)NCCC[C@H](NS(=O)(=O)c2ccc(-c3ccc(Cl)cc3)cc2)C(=O)O)CC1 [Example 75] | 4 | 20
CC(=O)Oc1ccccc1C(=O)NCCC[C@H](NS(=O)(=O)c1ccc(-c2ccccc2)cc1)C(=O)O [Example 44] | 6 | 30
O=C(NCCC[C@H](NS(=O)(=O)c1ccc(-c2ccc(Cl)cc2)cc1)C(=O)O)c1ccc(F)cc1 [Example 71] | 3 | 10
O=C(O)[C@H](CCCN(C(=O)C1CC1)C(=O)C1CC1)NS(=O)(=O)c1ccc(-c2ccc(Cl)cc2)cc1 [Example 63] | 2 | 10
CC(C)(C)OC(=O)NCCCC[C@@H](NS(=O)(=O)c1ccc(-c2ccc(Cl)cc2)cc1)C(=O)O [Example 2, R-(4-Chlorobiphenylsulfonyl)-Lys(Boc)-OH] | 6 | 20
CC(C)(C)C(=O)NCCC[C@H](NS(=O)(=O)c1ccc(-c2ccc(Cl)cc2)cc1)C(=O)O [Example 57] | 8 | 40
O=C(NCCC[C@H](NS(=O)(=O)c1ccc(-c2ccccc2)cc1)C(=O)O)c1ccccc1O [Example 45] | 4 | 20
CC(=O)NCCCC[C@@H](NS(=O)(=O)CCc1ccc(-c2ccccc2)cc1)C(=O)O [Example 9, R-(4-Biphenylethylsulfonyl)-N-epsilon-acetyl-Lys-OH] | 70 | 60
O=C(NCCC[C@H](NS(=O)(=O)c1ccc(-c2ccc(Cl)cc2)cc1)C(=O)O)c1cnccn1 [Example 19] | 5 | 20
CC1(C)C(C(=O)NCCC[C@H](NS(=O)(=O)c2ccc(-c3ccc(Cl)cc3)cc2)C(=O)O)C1(C)C [Example 70] | 3 | 10
O=C(NCCC[C@@H](NS(=O)(=O)c1ccc(-c2ccc(Cl)cc2)cc1)C(=O)O)Nc1ccccc1 [Example 42] | 3 | 10
O=C(NCCC[C@H](NS(=O)(=O)c1ccc(-c2ccc(Cl)cc2)cc1)C(=O)O)C1CCC1 [Example 66] | 2 | 10

Next, values leading:

IC50 [1] [nM] | IC50 (stromelysin (MMP-3)) [nM] | Structure (SMILES)
3 | 10 | CN(CCC[C@H](NS(=O)(=O)c1ccc(-c2ccc(Cl)cc2)cc1)C(=O)O)C(=O)C1CC1 [Example 144]
10 | 30 | COc1ccccc1C(=O)NCCC[C@H](NS(=O)(=O)c1ccc(-c2ccc(Cl)cc2)cc1)C(=O)O [Example 151]
2 | 7 | O=C(O)[C@H](CCCN1C(=O)C2CSCN2C1=O)NS(=O)(=O)c1ccc(-c2ccc(Cl)cc2)cc1 (stereo partly drawn) [Example 158]
10 | 10 | O=C(NCCC[C@H](NS(=O)(=O)c1ccc(-c2ccc(Cl)cc2)cc1)C(=O)O)c1ccc2[nH]cnc2c1 [Example 141]
4 | 20 | Cc1ccc(C(=O)NCCC[C@H](NS(=O)(=O)c2ccc(-c3ccc(Cl)cc3)cc2)C(=O)O)s1 [Example 120]
2 | 9 | O=C(NCCC[C@H](NS(=O)(=O)c1ccc(-c2ccc(Cl)cc2)cc1)C(=O)O)c1ccccc1 [Example 117]
2 | 5 | O=C(O)[C@H](CCCn1sc2ccccc2c1=O)NS(=O)(=O)c1ccc(-c2ccc(Cl)cc2)cc1 [Example 114]
3 | 30 | CC(C)(C)OC(=O)NCCC[C@H](NS(=O)(=O)c1ccc(-c2ccccc2)cc1)C(=O)O [Example 146]
6 | 50 | O=C(NCCC[C@H](NS(=O)(=O)c1ccc(-c2ccc(Cl)cc2)cc1)C(=O)O)c1cc(Cl)ccc1O [Example 162]
5 | 10 | CN(CCC[C@H](NS(=O)(=O)c1ccc(-c2ccc(Cl)cc2)cc1)C(=O)O)Cc1ccccc1 [Example 145]
10 | 30 | O=C(NCCC[C@H](NS(=O)(=O)c1ccc(-c2ccc(Cl)cc2)cc1)C(=O)O)c1ccc2ncccc2c1 [Example 126]
10 | 40 | O=C(/C=C/c1ccccc1)NCCC[C@H](NS(=O)(=O)c1ccc(-c2ccc(Cl)cc2)cc1)C(=O)O [Example 101]
4 | 10 | NS(=O)(=O)c1ccc(C(=O)NCCC[C@H](NS(=O)(=O)c2ccc(-c3ccc(Cl)cc3)cc2)C(=O)O)cc1 [Example 142]
10 | 10 | O=C(NCCC[C@H](NS(=O)(=O)c1ccc(-c2ccc(Cl)cc2)cc1)C(=O)O)c1ccc2[nH]nnc2c1 [Example 125]
4 | 10 | Nc1ccc(C(=O)NCCC[C@H](NS(=O)(=O)c2ccc(-c3ccc(Cl)cc3)cc2)C(=O)O)cc1 [Example 107]
4 | 20 | O=C(NCCC[C@H](NS(=O)(=O)c1ccc(-c2ccc(Cl)cc2)cc1)C(=O)O)c1cccc(F)c1F [Example 97]
4 | 40 | O=C(NCCC[C@H](NS(=O)(=O)c1ccc(-c2ccccc2)cc1)C(=O)O)C1CC1 [Example 161]
6 | 20 | O=C(NCCC[C@H](NS(=O)(=O)c1ccc(-c2ccc(Cl)cc2)cc1)C(=O)O)C1Cc2ccccc2N1 (stereo partly drawn) [Example 96]
5 | 20 | O=C(CC1CCCCC1)NCCC[C@H](NS(=O)(=O)c1ccc(-c2ccc(Cl)cc2)cc1)C(=O)O [Example 108]
5 | 30 | O=C(NCCC[C@H](NS(=O)(=O)c1ccc(-c2ccc(Cl)cc2)cc1)C(=O)O)c1cc(F)ccc1F [Example 94]
9 | 30 | Cn1cccc1C(=O)NCCC[C@H](NS(=O)(=O)c1ccc(-c2ccc(Cl)cc2)cc1)C(=O)O [Example 154]
10 | 60 | COc1cccc(C(=O)NCCC[C@H](NS(=O)(=O)c2ccc(-c3ccc(Cl)cc3)cc2)C(=O)O)c1 [Example 152]
